Experimental data taken from the CheMixHub viscosity set.
Several values for one entry are separate records, joined by “and”; a condition that tells them apart may be missing. Equal values may be shown once. ± gives the uncertainty stated by the source. One block for each compound: values may come before it.

Structure (SMILES): CCCC(=O)OCC
viscosity (303.15 K, 101 kPa): 0.5776 ± 0.0054 mPa·s

Structure (SMILES): CCCC(=O)OCC(COC(=O)CCC)OC(=O)CCC
viscosity (298 K, 101.33 kPa): 8.68 ± 0.12 mPa·s
viscosity (303 K, 101.33 kPa): 7.38 ± 0.1 mPa·s
viscosity (308 K, 101.33 kPa): 6.32 ± 0.09 mPa·s
viscosity (313 K, 101.33 kPa): 5.49 ± 0.08 mPa·s

Structure (SMILES): CCCCC(CC)COP(=O)(OCC(CC)CCCC)OCC(CC)CCCC (centres undefined)
viscosity (308.15 K, 101 kPa): 8.206 ± 0.057 mPa·s

Structure (SMILES): CC[N+](=O)[O-]
viscosity (293.15 K, 101.33 kPa): 0.68 ± 0.007 mPa·s and 0.679 ± 0.006 mPa·s and 0.679 ± 0.014 mPa·s
viscosity (298.15 K, 101.33 kPa): 0.638 ± 0.006 mPa·s
viscosity (303.15 K, 101 kPa): 0.5737 ± 0.015 mPa·s
viscosity (303.15 K, 101.33 kPa): 0.605 ± 0.005 mPa·s and 0.605 ± 0.013 mPa·s
viscosity (308.15 K, 101 kPa): 0.5507 ± 0.015 mPa·s
viscosity (313.15 K, 101.33 kPa): 0.544 ± 0.005 mPa·s and 0.544 ± 0.011 mPa·s
viscosity (318.15 K, 101 kPa): 0.5009 ± 0.013 mPa·s

Structure (SMILES): O=C(O)C(Cl)(Cl)Cl
viscosity (323.15 K, 101 kPa): 4.824 ± 0.2 mPa·s (2×) and 5.323 ± 0.069 mPa·s and 4.797 ± 0.12 mPa·s

Structure (SMILES): [Cl-].[Cl-].[Cl-].[Sb+3]
viscosity (323.15 K, 101 kPa): 3.926 ± 0.16 mPa·s

Further lines, results first:

viscosity (298 K, 101.33 kPa): 0.3406 ± 0.0056 mPa·s
Structure (SMILES): CCC(C)(C)C

viscosity (298.15 K, 100 kPa): 2.112 ± 0.026 mPa·s
Structure (SMILES): CCCCCCCCCC(=O)OCC

viscosity (298.15 K, 100 kPa): 1.93 ± 0.1 mPa·s
viscosity (298.15 K, 101 kPa): 1.933 ± 0.098 mPa·s
viscosity (308.15 K, 100 kPa): 1.59 ± 0.08 mPa·s
viscosity (308.15 K, 101 kPa): 1.594 ± 0.081 mPa·s
viscosity (318.15 K, 100 kPa): 1.34 ± 0.07 mPa·s
viscosity (318.15 K, 101 kPa): 1.343 ± 0.068 mPa·s
Structure (SMILES): CCn1ccnc1

viscosity (298.15 K, 101.33 kPa): 0.86 ± 0.011 mPa·s
Structure (SMILES): Cc1ccncc1
